Molecular target: Replicase polyprotein 1ab (Severe acute respiratory syndrome coronavirus 2, UniProt P0DTD1)

Question: `Cc1cc(C(=O)N[C@@H](C)C(=O)N[C@H](C(=O)N[C@@H](CC(C)C)C(=O)N[C@H](/C=C/C(=O)OCc2ccccc2)C[C@@H]2CCNC2=O)C(C)C)no1` was tested. Which Ki did it give?
Answer: 9 µM
